We go through 10 compounds from ChEMBL document CHEMBL1148544, “Discovery, SAR, and X-ray structure of novel biaryl-based dipeptidyl peptidase IV inhibitors” (Bioorg Med Chem Lett, 2006).

In one data set the target is Dipeptidyl peptidase 4 (Homo sapiens, UniProt P27487).
Data set [1] in a line: Permeability from apical to basolateral side of the Caco-2 cell membrane at 10 uM. The data set is classed as ADME, cell-based. The note with it: human. (Caco-2 monolayers are a common model of the intestinal barrier.)
Data set [2] in a line: Permeability from basolateral to apical side of the Caco-2 cell membrane at 10 uM. The data set is classed as ADME, cell-based. The following applies: human.
Data set [3] in a line: Stability in human liver microsomes at 1 uM. In kind it is ADME, Microsome. The note with it: read-out: Stability. In general terms: Microsomes from liver hold many membrane-bound enzymes, among them those of drug oxidation.

Dipeptidyl peptidase 4, sequence (P27487 whole entry): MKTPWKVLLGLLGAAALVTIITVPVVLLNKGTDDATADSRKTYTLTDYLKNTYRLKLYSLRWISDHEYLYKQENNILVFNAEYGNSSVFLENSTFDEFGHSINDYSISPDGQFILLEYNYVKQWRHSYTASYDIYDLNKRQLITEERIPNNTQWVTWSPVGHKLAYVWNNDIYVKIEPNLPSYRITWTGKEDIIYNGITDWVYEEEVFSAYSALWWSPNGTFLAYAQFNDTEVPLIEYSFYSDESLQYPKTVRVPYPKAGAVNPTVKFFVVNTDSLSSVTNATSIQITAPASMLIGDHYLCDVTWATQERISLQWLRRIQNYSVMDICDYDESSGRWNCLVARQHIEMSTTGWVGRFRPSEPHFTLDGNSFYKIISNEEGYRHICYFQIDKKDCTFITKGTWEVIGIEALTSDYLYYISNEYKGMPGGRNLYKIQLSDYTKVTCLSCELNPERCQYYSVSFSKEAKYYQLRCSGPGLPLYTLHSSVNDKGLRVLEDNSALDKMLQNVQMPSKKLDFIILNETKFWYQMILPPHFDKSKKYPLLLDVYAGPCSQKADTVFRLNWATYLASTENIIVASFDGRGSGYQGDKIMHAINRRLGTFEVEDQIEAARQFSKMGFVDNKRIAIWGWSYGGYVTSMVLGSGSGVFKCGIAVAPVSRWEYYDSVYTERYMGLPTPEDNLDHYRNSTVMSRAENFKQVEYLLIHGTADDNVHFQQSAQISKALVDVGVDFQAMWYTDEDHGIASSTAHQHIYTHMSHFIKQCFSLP

Broadly, the Ki is the equilibrium dissociation constant of an inhibitor or competing ligand from its target. High values mean lower affinity, low ones higher affinity. On Dipeptidyl peptidase 4, `N[C@@H](Cc1c[nH]c2ccccc12)C(=O)N1CCSC1` returned a Ki greater than 12.8 µM.

As to `N[C@@H](Cc1cccc2ccccc12)C(=O)N1CCSC1`, on Dipeptidyl peptidase 4, the Ki was greater than 12.8 µM.

One may read the Papp A→B as the apparent permeability from the apical to the basolateral side of a cell layer. A low value points to slow passage. What is called Papp B→A is how fast a substance crosses the layer from the basolateral side. Consider `N[C@@H](Cc1ccc(-c2ccccc2)cc1)C(=O)N1CCSC1`, for which, in data set [1], the Papp A→B at 10 µM was found to be 4.56 ×10⁻⁶ cm/s. In addition, in data set [2], the Papp B→A at 10 µM was determined as 1.5 ×10⁻⁶ cm/s. The remaining at 1 µM in data set [3] came out at 62%.

In the case of `N#C[C@@H]1CCCN1C(=O)[C@@H](N)Cc1ccc(-c2ccc(F)cc2)cc1`, the Papp A→B at 10 µM in data set [1] stood at 7.21 ×10⁻⁶ cm/s. The compound further returned a Papp B→A at 10 µM in data set [2] of 4.45 ×10⁻⁶ cm/s. Also, the remaining at 1 µM in data set [3] was 6.7%.

As for `N#C[C@@H]1CCCN1C(=O)[C@@H](N)Cc1ccc(-c2ccc(F)cc2F)cc1`, the Papp A→B at 10 µM in data set [1] turned out to be 4.93 ×10⁻⁶ cm/s. Moreover, the Papp B→A at 10 µM in data set [2] is 4.93 ×10⁻⁶ cm/s. The remaining at 1 µM in data set [3] is 73.9%.

With `N#C[C@@H]1CCCN1C(=O)[C@@H](N)Cc1ccc(-c2ccccc2)cc1`, the Papp A→B at 10 µM in data set [1] turned out to be 2.66 ×10⁻⁶ cm/s. This compound came in with a Papp B→A at 10 µM in data set [2] of 3.82 ×10⁻⁶ cm/s. Moreover, in data set [3], the remaining at 1 µM was 52.3%.

In turn, `N[C@@H](Cc1ccc(-c2ccccc2)cc1)C(=O)N1CCC[C@H]1CO` displayed a Ki on Dipeptidyl peptidase 4 greater than 12.8 µM.

In turn, `N[C@@H](Cc1ccc(-c2ccc(F)cc2)cc1)C(=O)N1CCSC1` gave a Papp A→B at 10 µM in data set [1] of 16.8 ×10⁻⁶ cm/s. Further, the Papp B→A at 10 µM in data set [2] was determined as 5.61 ×10⁻⁶ cm/s. Also, the remaining at 1 µM in data set [3] was 78.5%.

As for `CC1(C)OCCN1C(=O)[C@@H](N)Cc1ccc(-c2ccccc2)cc1`, at Dipeptidyl peptidase 4, the Ki is greater than 12.8 µM.

As to `N[C@@H](Cc1ccc(-c2ccccc2)cc1)C(=O)N1CCC[C@H]1COCc1ccccc1`, at Dipeptidyl peptidase 4, the Ki was greater than 12.8 µM.
